Results from ChEMBL document CHEMBL1121453, “Mammalian alkaloids. 8. Synthesis and biological effects of tetrahydropapaveroline related 1-benzyltetrahydroisoquinolines” (J Med Chem, 1980).

How the values were obtained:
Format in all cases: cell membranes, Membrane
Dopamine receptor = test: Inhibition of [3H]spiroperidol binding to dopamine receptor from rat striatum membranes
[1] = biological target: Adrenergic receptor alpha; test: Inhibition of [3H]WB-4101 binding to alpha adrenergic receptor from rat cerebral cortical membranes
Adrenergic receptor beta = Adrenergic receptor beta (Rattus norvegicus, UniProt P18090+P10608+P26255); test: Inhibition of [3H]dihydroalprenolol binding to Beta adrenergic receptor from rat cerebral cortical membranes

SMILES	Ki (Dopamine receptor)	Ki [1]	Ki (Adrenergic receptor beta)
COc1ccc(CC2NCCc3cc(OC)c(O)cc32)cc1O (configuration not stated)	3.8 µM	7.5 µM	4 µM
COc1cc2c(cc1O)C(Cc1ccc(O)c(O)c1)NCC2 (configuration not stated)	4.5 µM	7.5 µM	0.2 µM
Oc1ccc(C[C@H]2NCCc3cc(O)c(O)cc32)cc1O	35 µM	25 µM	30 µM
Oc1cc(Br)c(CC2NCCc3cc(O)c(O)cc32)cc1O (configuration not stated)	1.5 µM	0.5 µM	40 µM
COc1cc(CC2(C(=O)O)NCCc3cc(O)c(O)cc32)ccc1O (configuration not stated)	> 100 µM	> 100 µM	> 100 µM
O=C(O)C1(Cc2ccc(O)c(O)c2)NCCc2cc(O)c(O)cc21 (configuration not stated)	> 100 µM	> 100 µM	> 100 µM
COc1ccc(C[C@H]2NCCc3cc(OC)c(O)cc32)cc1O	30 µM	10 µM	30 µM
Oc1ccc(CC2NCCc3cc(O)c(O)cc32)cc1O (configuration not stated)	10 µM	40 µM	0.3 µM
COc1cc(CC2NCCc3cc(O)c(O)cc32)ccc1O (configuration not stated)	5 µM	4.5 µM	0.5 µM
Oc1ccc(C[C@@H]2NCCc3cc(O)c(O)cc32)cc1O	2 µM	5 µM	0.3 µM
COc1ccc(C[C@@H]2NCCc3cc(OC)c(O)cc32)cc1O	1.5 µM	5 µM	1.3 µM
COc1ccc(CC2NCCc3cc(OC)c(OC)cc32)cc1OC (configuration not stated) [TETRAHYDROPAPAVERINE]		10 µM	1 µM
COc1cc(C[C@@H]2NCCc3cc(O)c(O)cc32)cc(OC)c1OC [TRETOQUINOL]	5 µM	10 µM	
